Experiments:
duck salad = experiment: Test C flooded paddy test; format: in vivo, Heteranthera limosa; settings: Flood
Method in brief: (§1)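 Test compounds are applied straight into paddy water held 3 cm above the soil surface, with that flood maintained for the whole test. After 13 to 15 days in the greenhouse, each species is scored visually relative to controls.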

morningglory = experiment: Test A pre-/postemergence greenhouse test; format: in vivo, Ipomoea spp.; settings: for Plant response rating, Morningglory: 0 to 100 scale where 0 is no effect and 100 is complete control; for Morningglory plant response rating: 0 to 100 scale
Method in brief: (§2)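 Pots of loam–sand soil sown with the test species are sprayed preemergence on the soil surface; emerged seedlings (1–2 leaves, 2–10 cm) are sprayed postemergence at the same time. The vehicle is a non-phytotoxic solvent mixture with surfactant. Injury is scored visually after ~10 d in greenhouse.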

barnyardgrass [1] = experiment: Test C flooded paddy test; format: in vivo, Echinochloa crus-galli; settings: Flood
Method in brief: as §1

umbrella sedge = experiment: Test C flooded paddy test; format: in vivo, Cyperus difformis; settings: Flood
Method in brief: as §1

wheat = experiment: Test A pre-/postemergence greenhouse test; format: in vivo, Triticum aestivum; settings: for Plant response rating, Wheat: 0 to 100 scale where 0 is no effect and 100 is complete control; for Wheat plant response rating: 0 to 100 scale
Method in brief: as §2

velvetleaf = experiment: Test A pre-/postemergence greenhouse test; format: in vivo, Abutilon theophrasti; settings: for Plant response rating, Velvetleaf: 0 to 100 scale where 0 is no effect and 100 is complete control; for Velvetleaf plant response rating: 0 to 100 scale
Method in brief: as §2

redroot pigweed = experiment: Test A pre-/postemergence greenhouse test; format: in vivo, Amaranthus retroflexus; settings: for Plant response rating, Pigweed: 0 to 100 scale where 0 is no effect and 100 is complete control; for Pigweed plant response rating: 0 to 100 scale
Method in brief: as §2

crabgrass = experiment: Test A pre-/postemergence greenhouse test; format: in vivo, Digitaria sanguinalis; settings: for Plant response rating, Crabgrass, Large: 0 to 100 scale where 0 is no effect and 100 is complete control; for Crabgrass, Large plant response rating: 0 to 100 scale
Method in brief: as §2

rice = experiment: Test C flooded paddy test; format: in vivo, Oryza sativa; settings: Flood
Method in brief: as §1

corn = experiment: Test A pre-/postemergence greenhouse test; format: in vivo, Zea mays; settings: for Plant response rating, Corn: 0 to 100 scale where 0 is no effect and 100 is complete control; for Corn plant response rating: 0 to 100 scale
Method in brief: as §2

barnyardgrass [2] = experiment: Test A pre-/postemergence greenhouse test; format: in vivo, Echinochloa crus-galli; settings: for Plant response rating, Barnyardgrass: 0 to 100 scale where 0 is no effect and 100 is complete control; for Barnyardgrass plant response rating: 0 to 100 scale
Method in brief: as §2

giant foxtail = experiment: Test A pre-/postemergence greenhouse test; format: in vivo, Setaria faberi; settings: for Plant response rating, Foxtail, Giant: 0 to 100 scale where 0 is no effect and 100 is complete control; for Foxtail, Giant plant response rating: 0 to 100 scale
Method in brief: as §2

[3] = 62 g ai/ha, scale 0 to 100 (0 no effect, 100 complete control)
[4] = 250 g ai/ha, scale 0 to 100, 0 no effect, 100 complete control, 13 to 15 days
[5] = Postemergence, 500 g ai/ha, 0 is no effect, 100 is complete control
[6] = Preemergence, 125 g ai/ha, 0 no effect, 100 complete control
[7] = 31 g ai/ha, scale 0 to 100 (0 no effect, 100 complete control)
[8] = 62 g ai/ha, scale 0 to 100, 0 no effect, 100 complete control, 13 to 15 days
[9] = 125 g ai/ha, scale 0 to 100, 0 no effect, 100 complete control, 13 to 15 days

With `Cn1nc(C(F)(F)F)c(C[S+]([O-])c2cc(C(C)(C)C)cc[n+]2[O-])c1OCC(F)(F)F` (racemic) [Compound 61] the “Plant response rating, Ducksalad” value (duck salad; [3]) was 0, the “Plant response rating, Ducksalad” value (duck salad; [4]) was 90 and the “Plant response rating, Morningglory” value (morningglory; Postemergence, 125 g ai/ha) was 0. For the same compound, the “Morningglory plant response rating” value (morningglory; [5]) was 70, the “Morningglory plant response rating” value (morningglory; [6]) was 60 and the “Plant response rating, Morningglory” value (morningglory; Preemergence, 500 g ai/ha) was 100. For the same compound, the “Plant response rating, Barnyardgrass” value (barnyardgrass [1]; [3]) was 30, the “Plant response rating, Barnyardgrass” value (barnyardgrass [1]; [4]) was 30 and the “Plant response rating, Sedge, Umbrella” value (umbrella sedge; [3]) was 0. The “Plant response rating, Sedge, Umbrella” value (umbrella sedge; [4]) was 100, the “Plant response rating, Wheat” value (wheat; Postemergence, 125 g ai/ha) was 50 and the “Wheat plant response rating” value (wheat; [5]) was 60. For the same compound, the “Wheat plant response rating” value (wheat; [6]) was 50, the “Plant response rating, Wheat” value (wheat; Preemergence, 500 g ai/ha) was 100 and the “Plant response rating, Velvetleaf” value (velvetleaf; Postemergence, 125 g ai/ha) was 0. The “Velvetleaf plant response rating” value (velvetleaf; [5]) was 70, the “Velvetleaf plant response rating” value (velvetleaf; [6]) was 0 and the “Plant response rating, Velvetleaf” value (velvetleaf; Preemergence, 500 g ai/ha) was 100. The “Plant response rating, Pigweed” value (redroot pigweed; Postemergence, 125 g ai/ha) was 40, the “Pigweed plant response rating” value (redroot pigweed; [5]) was 60 and the “Pigweed plant response rating” value (redroot pigweed; [6]) was 80. The “Plant response rating, Pigweed” value (redroot pigweed; Preemergence, 500 g ai/ha) was 100, the “Plant response rating, Crabgrass, Large” value (crabgrass; Postemergence, 125 g ai/ha) was 30 and the “Crabgrass, Large plant response rating” value (crabgrass; [5]) was 60. The “Crabgrass, Large plant response rating” value (crabgrass; [6]) was 70, the “Plant response rating, Crabgrass, Large” value (crabgrass; Preemergence, 500 g ai/ha) was 100 and the “Plant response rating, Rice” value (rice; [3]) was 20. For the same compound, the “Plant response rating, Rice” value (rice; [4]) was 50, the “Plant response rating, Corn” value (corn; Postemergence, 125 g ai/ha) was 30 and the “Corn plant response rating” value (corn; [5]) was 70. The “Corn plant response rating” value (corn; [6]) was 0, the “Plant response rating, Corn” value (corn; Preemergence, 500 g ai/ha) was 50 and the “Plant response rating, Barnyardgrass” value (barnyardgrass [2]; Postemergence, 125 g ai/ha) was 30. The “Barnyardgrass plant response rating” value (barnyardgrass [2]; [5]) was 80, the “Barnyardgrass plant response rating” value (barnyardgrass [2]; [6]) was 0 and the “Plant response rating, Barnyardgrass” value (barnyardgrass [2]; Preemergence, 500 g ai/ha) was 100. For the same compound, the “Plant response rating, Foxtail, Giant” value (giant foxtail; Postemergence, 125 g ai/ha) was 50, the “Foxtail, Giant plant response rating” value (giant foxtail; [5]) was 70 and the “Foxtail, Giant plant response rating” value (giant foxtail; [6]) was 100. The “Plant response rating, Foxtail, Giant” value (giant foxtail; Preemergence, 500 g ai/ha) was 100.
`Cn1nc(C(F)(F)F)c(CS(=O)(=O)c2ccc(F)c[n+]2[O-])c1Cl` [Compound 53] was tested, and the “Plant response rating, Ducksalad” value (duck salad; [7]) was 20, the “Plant response rating, Ducksalad” value (duck salad; [8]) was 60 and the “Plant response rating, Ducksalad” value (duck salad; [9]) was 100. The “Plant response rating, Ducksalad” value (duck salad; [4]) was 100, the “Plant response rating, Morningglory” value (morningglory; Postemergence, 125 g ai/ha) was 20 and the “Morningglory plant response rating” value (morningglory; [5]) was 30. For the same compound, the “Morningglory plant response rating” value (morningglory; [6]) was 30, the “Plant response rating, Morningglory” value (morningglory; Preemergence, 500 g ai/ha) was 70 and the “Plant response rating, Barnyardgrass” value (barnyardgrass [1]; [7]) was 0. The “Plant response rating, Barnyardgrass” value (barnyardgrass [1]; [8]) was 0, the “Plant response rating, Barnyardgrass” value (barnyardgrass [1]; [9]) was 60 and the “Plant response rating, Barnyardgrass” value (barnyardgrass [1]; [4]) was 80. The “Plant response rating, Sedge, Umbrella” value (umbrella sedge; [7]) was 20, the “Plant response rating, Sedge, Umbrella” value (umbrella sedge; [9]) was 80 and the “Plant response rating, Sedge, Umbrella” value (umbrella sedge; [4]) was 90. For the same compound, the “Plant response rating, Wheat” value (wheat; Postemergence, 125 g ai/ha) was 0, the “Wheat plant response rating” value (wheat; [5]) was 0 and the “Wheat plant response rating” value (wheat; [6]) was 0. The “Plant response rating, Wheat” value (wheat; Preemergence, 500 g ai/ha) was 0, the “Plant response rating, Velvetleaf” value (velvetleaf; Postemergence, 125 g ai/ha) was 0 and the “Velvetleaf plant response rating” value (velvetleaf; [5]) was 0. For the same compound, the “Velvetleaf plant response rating” value (velvetleaf; [6]) was 0, the “Plant response rating, Velvetleaf” value (velvetleaf; Preemergence, 500 g ai/ha) was 0 and the “Plant response rating, Pigweed” value (redroot pigweed; Postemergence, 125 g ai/ha) was 20. For the same compound, the “Pigweed plant response rating” value (redroot pigweed; [5]) was 50, the “Pigweed plant response rating” value (redroot pigweed; [6]) was 100 and the “Plant response rating, Pigweed” value (redroot pigweed; Preemergence, 500 g ai/ha) was 100. The “Plant response rating, Crabgrass, Large” value (crabgrass; Postemergence, 125 g ai/ha) was 40, the “Crabgrass, Large plant response rating” value (crabgrass; [5]) was 80 and the “Crabgrass, Large plant response rating” value (crabgrass; [6]) was 60. For the same compound, the “Plant response rating, Crabgrass, Large” value (crabgrass; Preemergence, 500 g ai/ha) was 90, the “Plant response rating, Rice” value (rice; [7]) was 0 and the “Plant response rating, Rice” value (rice; [8]) was 25. For the same compound, the “Plant response rating, Rice” value (rice; [9]) was 60, the “Plant response rating, Rice” value (rice; [4]) was 75 and the “Plant response rating, Corn” value (corn; Postemergence, 125 g ai/ha) was 0. The “Corn plant response rating” value (corn; [5]) was 0, the “Corn plant response rating” value (corn; [6]) was 0 and the “Plant response rating, Corn” value (corn; Preemergence, 500 g ai/ha) was 0. For the same compound, the “Plant response rating, Barnyardgrass” value (barnyardgrass [2]; Postemergence, 125 g ai/ha) was 60, the “Barnyardgrass plant response rating” value (barnyardgrass [2]; [5]) was 80 and the “Barnyardgrass plant response rating” value (barnyardgrass [2]; [6]) was 50. For the same compound, the “Plant response rating, Barnyardgrass” value (barnyardgrass [2]; Preemergence, 500 g ai/ha) was 80, the “Plant response rating, Foxtail, Giant” value (giant foxtail; Postemergence, 125 g ai/ha) was 80 and the “Foxtail, Giant plant response rating” value (giant foxtail; [5]) was 90. The “Foxtail, Giant plant response rating” value (giant foxtail; [6]) was 60 and the “Plant response rating, Foxtail, Giant” value (giant foxtail; Preemergence, 500 g ai/ha) was 80.

Source: US20100298141A1, “SUBSTITUTED PYRIDINE N-OXIDE HERBICIDES” (E. I. DU PONT DE NEMOURS AND COMPANY, priority 2007, published 2010)
